Columns and labels:
Assay in all cases: In vitro MMP inhibition, IC50 determination (fluorogenic substrate I)
Assay type in all cases: biochemical
[1] = molecular target: T1, Human recombinant MMP-14 (Homo sapiens, UniProt P50281)
T1 construct: The catalytic domain enzyme was expressed in E. coli inclusion bodies, solubilized in urea; made in house
Summary of the method: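 Catalytic-domain MMP-14, expressed in E. coli and refolded, activated with APMA or trypsin; compounds incubated at room temperature with 4 μM fluorogenic substrate I (MCA-PLGL-Dpa-AR-NH2) in Tris/NaCl/CaCl2 buffer, pH 7.5. Fluorescence at ex 328/em 415 nm; IC50 from loss of fluorescence versus inhibitor concentration.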

[2] = molecular target: T2, Human recombinant MMP-2 (Homo sapiens, UniProt P08253)
T2 construct: made in house; host or cells: MMP-2-transfected p2AHT2 cells
T2 sequence (P08253 110-660): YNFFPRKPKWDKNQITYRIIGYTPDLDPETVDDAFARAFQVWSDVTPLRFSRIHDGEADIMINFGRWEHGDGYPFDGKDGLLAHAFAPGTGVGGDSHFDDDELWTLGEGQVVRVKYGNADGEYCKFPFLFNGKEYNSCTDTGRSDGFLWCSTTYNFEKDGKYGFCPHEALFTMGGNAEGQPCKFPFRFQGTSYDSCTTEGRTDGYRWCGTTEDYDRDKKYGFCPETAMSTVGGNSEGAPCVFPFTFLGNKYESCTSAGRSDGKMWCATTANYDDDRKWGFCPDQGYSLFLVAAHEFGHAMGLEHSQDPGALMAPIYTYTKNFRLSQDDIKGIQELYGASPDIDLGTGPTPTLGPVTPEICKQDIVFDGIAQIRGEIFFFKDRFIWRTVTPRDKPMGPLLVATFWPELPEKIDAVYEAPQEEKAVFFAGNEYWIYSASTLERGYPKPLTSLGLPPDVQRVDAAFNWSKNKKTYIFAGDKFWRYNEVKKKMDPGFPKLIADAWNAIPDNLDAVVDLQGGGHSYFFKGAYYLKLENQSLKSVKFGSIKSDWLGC
Summary of the method: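 APMA- or trypsin-activated recombinant MMP-2 was incubated at room temperature with serial inhibitor dilutions in Tris buffer pH 7.5 (100 mM NaCl, 10 mM CaCl2, 0.05% Brij), with DMSO from 1% stocks, and 4 μM substrate I. Cleavage was read by fluorescence at 328/415 nm; IC50 was taken from the loss of fluorescence versus inhibitor concentration.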

[3] = molecular target: T3, Human recombinant MMP-9 (Homo sapiens, UniProt P14780)
T3 construct: made in house; host or cells: MMP-9-transfected HT1080 cells (spent media)
Summary of the method: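 MMP-9 proenzyme purified from transfected HT1080 cell media, activated with APMA or trypsin. Compound dilutions in pH 7.5 Tris/NaCl/CaCl2 buffer with 0.05% polyoxyethylene 23 lauryl ether, incubated at room temperature with 4 μM MCA/Dpa substrate I. IC50 from fluorescence loss (ex 328, em 415 nm) versus inhibitor concentration.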

[4] = molecular target: T4, Human recombinant MMP-1 (Homo sapiens, UniProt P03956)
T4 construct: made in house; host or cells: MMP-1-transfected HT-1080 cells (spent media)
T4 sequence (P03956 100-469): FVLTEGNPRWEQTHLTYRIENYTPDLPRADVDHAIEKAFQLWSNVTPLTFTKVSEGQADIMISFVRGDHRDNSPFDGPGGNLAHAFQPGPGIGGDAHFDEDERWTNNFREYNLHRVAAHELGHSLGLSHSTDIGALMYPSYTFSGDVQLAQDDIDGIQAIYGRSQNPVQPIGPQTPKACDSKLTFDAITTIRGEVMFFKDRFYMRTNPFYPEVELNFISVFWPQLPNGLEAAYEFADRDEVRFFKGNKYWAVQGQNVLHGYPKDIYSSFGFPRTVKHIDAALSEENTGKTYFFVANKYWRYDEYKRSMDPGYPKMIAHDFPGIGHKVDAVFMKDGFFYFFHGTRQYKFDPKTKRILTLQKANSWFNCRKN
Summary of the method: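 APMA- or trypsin-activated enzyme, purified from spent media of transfected HT-1080 cells, incubated at room temperature with 4 μM MCA-Pro-Leu-Gly-Leu-Dpa-Ala-Arg-NH2 and graded inhibitor in Tris buffer pH 7.5 (10 mM CaCl2, 0.05% Brij). Cleavage read by fluorescence (ex 328/em 415 nm); IC50 from fluorescence reduction versus inhibitor concentration.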

[5] = molecular target: T5, Human recombinant MMP-13 (Homo sapiens, UniProt P45452)
T5 construct: made in house; host or cells: baculovirus / insect cells
Summary of the method: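 Fluorescence at 415 nm (excitation 328 nm) reports Gly-Leu cleavage of 4 μM quenched methoxycoumarin peptide substrate I. Human recombinant MMP-13, activated by trypsin or APMA, was incubated at room temperature with varied inhibitor concentrations in pH 7.5 Tris/NaCl/CaCl2 buffer; IC50 derived from reduced fluorescence.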

[6] = value outside parentheses (Ki in parenthesis)
[7] = substrate (I) 4 μM, room temperature, values not in parenthesis

T3 sequence (P14780 107-707 limits assumed): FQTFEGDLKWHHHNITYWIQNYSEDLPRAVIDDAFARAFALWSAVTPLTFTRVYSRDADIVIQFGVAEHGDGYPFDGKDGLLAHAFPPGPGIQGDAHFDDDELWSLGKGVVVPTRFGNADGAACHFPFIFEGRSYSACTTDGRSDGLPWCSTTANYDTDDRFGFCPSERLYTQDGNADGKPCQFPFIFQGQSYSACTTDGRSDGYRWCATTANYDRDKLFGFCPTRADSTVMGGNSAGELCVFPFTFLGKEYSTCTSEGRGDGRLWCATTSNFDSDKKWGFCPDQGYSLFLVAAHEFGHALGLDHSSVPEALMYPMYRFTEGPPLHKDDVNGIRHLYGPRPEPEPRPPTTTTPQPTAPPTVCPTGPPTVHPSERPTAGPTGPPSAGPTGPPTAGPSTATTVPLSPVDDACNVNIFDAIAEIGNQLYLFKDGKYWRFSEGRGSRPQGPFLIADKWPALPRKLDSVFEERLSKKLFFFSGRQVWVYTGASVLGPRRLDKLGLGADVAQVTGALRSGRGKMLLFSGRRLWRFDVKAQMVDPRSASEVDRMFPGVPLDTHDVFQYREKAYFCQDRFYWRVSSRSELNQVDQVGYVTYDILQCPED

SMILES | IC50 ([1]; value outside parenthesis) [nM] | IC50 ([2]; value outside parenthesis) [nM] | IC50 ([3]; value outside parenthesis) [nM] | IC50 ([4]; value outside parenthesis) [nM] | IC50 ([5]; value outside parenthesis) [nM] | also measured
CC(C)(C)c1ccc(-c2nnc(CCCOc3ccc(S(=O)(=O)C4(C(=O)NO)CCOCC4)cc3)o2)cc1 [Example 278] | > 10000 | 208 | 494 | > 10000 | 3.7 | 
CCCc1ccc(-c2nc(CCCOc3ccc(S(=O)(=O)C4(C(=O)NO)CCOCC4)cc3)oc2C)cc1 [Example 207] | > 10000 | 114 | 127 | > 10000 | 3.7 | 
CCCCOc1ccc(C(=O)NCCCOc2ccc(S(=O)(=O)C3(C(=O)NO)CCOCC3)cc2)cc1 [Example 364] |  |  |  |  |  | IC50 [1, 6]: > 10000 nM; IC50 [2, 6]: 250 nM; IC50 [3, 6]: > 10000 nM; IC50 [4, 6]: > 10000 nM; IC50 [5, 6]: 1.8 nM
Cc1ccc2c(c1)CCCN2CCCCCOc1ccc(S(=O)(=O)C2(C(=O)NO)CCOCC2)cc1 [Example 415] |  |  |  |  |  | IC50 [1, 6]: > 10000 nM; IC50 [2, 6]: 51 nM; IC50 [3, 6]: 1780 nM; IC50 [4, 6]: > 10000 nM; IC50 [5, 6]: 15 nM
Cc1cc(-c2cccc(CCOc3ccc(S(=O)(=O)C4(C(=O)NO)CCOCC4)cc3)c2)ccc1F [Example 120] | > 10000 | 1170 | > 10000 | > 10000 | 5.8 | 
O=C(NO)C1(S(=O)(=O)c2ccc(OCCc3cccc(-c4ccccc4)c3)cc2)CCOCC1 [Example 99] | > 10000 | 246 | 3440 | > 10000 | 0.4 | 
O=C(NO)C1(S(=O)(=O)c2ccc(OCCSc3nc4ccc(Cl)cc4o3)cc2)CCOCC1 [Example 502] |  |  |  |  |  | IC50 ([1]; value outside parentheses): 5640 nM; IC50 ([2]; value outside parentheses): 22.7 nM; IC50 ([3]; value outside parentheses): 160 nM; IC50 ([4]; value outside parentheses): > 10000 nM; IC50 ([5]; value outside parentheses): 1 nM
O=C1c2ccccc2CN1CCCOc1ccc(S(=O)(=O)C2(C(=O)NO)CCOCC2)cc1 [Example 22, 4-[[4-[3-(1,3-dihydro-1-oxo-2H-isoindol-2-yl)propoxy]phenyl]sulfonyl]tetrahydro-N-hydroxy-2H-pyran-4-carboxamide] |  |  |  |  |  | IC50 [1, 7]: > 10000 nM; IC50 [2, 7]: 1000 nM; IC50 [3, 7]: > 10000 nM; IC50 [4, 7]: > 10000 nM; IC50 [5, 7]: 4.9 nM
CCOc1ccc2nc(SCCCOc3ccc(S(=O)(=O)C4(C(=O)NO)CCOCC4)cc3)sc2c1 [Example 287] | > 10000 | 3.6 | 16.4 | > 10000 | 0.8 | 
O=C(NO)C1(S(=O)(=O)c2ccc(OCCCc3cccc(C4CCCCN4)c3)cc2)CCN(C2CC2)CC1 (stereo not shown) [Example 609] |  |  |  |  |  | IC50 ([1]; value outside parentheses): > 10000 nM; IC50 ([2]; value outside parentheses): 580 nM; IC50 ([3]; value outside parentheses): 6890 nM; IC50 ([4]; value outside parentheses): > 10000 nM; IC50 ([5]; value outside parentheses): 7.7 nM
O=C(NO)C1(S(=O)(=O)c2ccc(OCCCc3nc(-c4cc(F)ccc4F)no3)cc2)CCOCC1 [Example 211] | > 10000 | 26.2 | 864 | 9650 | 0.4 | 
COc1ccc2sc(SCCOc3ccc(S(=O)(=O)C4(C(=O)NO)CCOCC4)cc3)nc2c1 [Example 282] | > 10000 | 43.3 | 704 | > 10000 | 2.6 | 
CN(CCc1ccccc1)S(=O)(=O)CCCOc1ccc(S(=O)(=O)C2(C(=O)NO)CCOCC2)cc1 [Example 292] |  |  |  |  |  | IC50 [1, 6]: > 10000 nM; IC50 [2, 6]: 14.4 nM; IC50 [3, 6]: 163 nM; IC50 [4, 6]: 970 nM; IC50 [5, 6]: 2.4 nM
O=C1c2cc(Cl)c(Cl)cc2C(=O)N1CCCOc1ccc(S(=O)(=O)C2(C(=O)NO)CCOCC2)cc1 [Example 333] |  |  |  |  |  | IC50 [1, 6]: > 10000 nM; IC50 [2, 6]: 656 nM; IC50 [3, 6]: 3240 nM; IC50 [4, 6]: > 10000 nM; IC50 [5, 6]: 1.8 nM
